Patent US12502369B2, “Methods of cancer treatment” (K-GEN, INC., priority 2015, dated 2025)
“Also recorded” adds a separate entry of the source. Read-outs that look alike come from different tables or passages of the source.

Columns and labels:
H358 = assay: Proliferation assay (CellTiter Glo), H358; assay type: cell-based; conditions: for Top inhibition %: 96 hours
Procedure: (§1) Briefly, cells at a density of 1,000-10,000 cells/well were seeded in 96-well plates and incubated at 37′C for 24 hours. A series of 9 different concentrations of compound stocks (500×) were created by 3-fold serial dilution in DMSO. These compounds were further diluted in culture media and then added to cells so that the final DMSO concentration was 0.2%. After 96 hours of incubation, 50 μL of CellTiter Glo reagent (Promega) was added to each well and luminescence was measured after 10 minutes using EnVision (PerkinElmer). […] The dose range for most compounds was 4.6 nM-30 μM. The dose ranges for some compounds were adjusted downward to 0.46 nM-3 μM or 0.08 nM-0.5 μM or 0.03 nM-0.2 μM. Luminescence from cells treated with […] alone was set as Max and % of inhibition was calculated as follows: Inhibition %=(Max-Sample value)/Max*100. Data was analyzed using XL-fit software (ID Business Solutions Ltd.) and EC50, relative EC50, and % of top inhibition were calculated. The results are shown in Tables 3-6 for pancreatic cancer, lung cancer, colon/gastric cancer, and leukemia cell lines.

[1] = system: leukemia inhibitory factor (LIF); assay: Western blot of LIF in A549 cells; assay type: cell-based; conditions: for protein levels of the leukemia inhibitory factor (LIF): Western blot, concentrations of Table 8, 48 hours
Procedure: (§2) Cancer cells (2-8 million cells) were seeded in 10 cm dishes and grown overnight. For A549 lung cancer cell line, about 3 million cells were seeded. Cells were then treated with different drugs at indicated concentrations (see Table 8) for a period of time up to 48 hours. Cells were lysed in 0.3-0.5 mL of RIPA buffer (Sigma) supplemented with protease inhibitors (Roche) and phosphatase inhibitors (Sigma). Lysates were assayed for protein concentration using BCA kit (Pierce). Normalized amount of lysates (20-30 μg protein/lane) were run on 4-12% NuPage gel (Life Technologies) and the proteins were transferred to the PVDF or nitrocellulose membrane using iBlot® Transfer Stack (Life Technologies). The membranes were probed with primary antibodies shown in Table 8 at 4° C. overnight after blocking with 1×TBST containing 5% non-fat milk. Antibodies from other vendors could also be used in Western blot analysis. After washing 5 times with 1×TBS containing 0.1% Tween20, the membranes were probed with 2nd antibodies Anti-mouse IgG Dylight 800 conjugate or Anti-rabbit IgG DyLight 680 conjugate (1:10000; Cell signaling or similar IR 2nd antibodies from different vendors) at room temperature for one hour. After washing 5 times, the membranes were scanned using Odyssey® Imaging System (Licor Biosciences).

CaMKii (Thr286) = assay: CaMKii phosphorylation in pancreatic cancer cell lines, Western blot; assay type: cell-based; conditions: Panc1 or Panc2.13 cells; 24 or 48 hours; K-101A 0.5 and 2.5 μM, K-102 0.1 and 0.5 μM
Procedure: Cells were lysed in a protein lysis buffer (1 ml of 10×TNE [20 mL 1M Tris pH7.5; 30 mL 5M NaCl; 2 mL 0.5M EDTA; 48 mL d2H2O], 1 ml of 10% NP40, 7.7 mL of dH2O, 100 μL of 10× Protease inhibitors, 100 μL of 10× Phosphatase inhibitors, and 10 μl DTT). Protein quantification, SDS-PAGE, and Western blot procedures were performed as described in Example 2. […] The effect was more apparent at 48 hours. Phospho-CaMKii (T286) is a marker for activation of CaMKii kinase in the Wnt/Ca^2′ signaling pathway when K-Ras and CaM are dissociated (Wang et al., 2015, Cell. 163(5):1237-51).

[2] = literature reports; cited from earlier work
[3] = system: Cancer cell lines (161 different lines); assay: Proliferation assay, 161 cancer cell lines, 72 hours; assay type: cell-based
Procedure: Cells were treated for 72 hours instead of 96 hours. Thus, cell numbers from individual cell line were optimized so that cells were ˜70-80% confluent in 72 hours when treated with vehicle only. […] A number of other cancer cell lines from bladder, ovarian, myeloma, prostrate, and renal cancers are also sensitive to K-101A. Most cell lines from liver and lung (SCLC) are resistant to K101A.

phospho-PKC (pan) = assay: Western blot of phospho-PKC (pan) in A549 cells; assay type: cell-based
Procedure: as §2

[4] = system: PKCμ and PKCδ in Namalwa, Mino, Raji, Daudi; assay: Activation of PKC isoforms in four lymphoma cell lines, Western blot; assay type: cell-based
Procedure: Western blot analysis was performed as described in Example 2 and 4.

Wnt signaling pathway = assay: TOPFlash / TK-RL Dual Luciferase assay (Wnt signaling), A549; assay type: cell-based; conditions: 24 hours, K101A 1, 3, 10 μM, K102 0.03, 0.1, 0.3 μM
Procedure: A549 cells (20K cells/well) were seeded in 96-well plates on Day 1. Cells were transfected with a mixture of TOPFlash firefly luciferase reporter plasmid M50 (300 ng/well) (Adagene) and an internal control plasmid pRL-TK-Renilla luciferase (20 ng/well) (Promega) using FuGene transfection reagent (plasmid:FuGene=1:4) (Promega) on Day 2. […] Luciferase activities in treated cells were measured using Dual-Glo Luciferase Kit according to manufacturer's instructions (Promega) on Envision (Perkin Elmer). TOPFlash has been used as a reporter for activation of Wnt signaling pathway. […] It has been reported that PKC activators, via suppression of K-Ras stemness pathway, can block canonical Wnt signaling in pancreatic cancer cells. The data here indicate that PKC activator can also block canonical Wnt signaling in lung cancer cells.

KP-4 = assay: Proliferation assay (CellTiter Glo), KP-4; assay type: cell-based; conditions: for Top inhibition %: 96 hours
Procedure: as §1

PKCμ = PKCμ phosphorylation in A549, HCT116, SW620, Panc02.13 cells, Western blot; assay type: cell-based; conditions: 30 minutes
Procedure: Non-cancerous lung fibroblast cell line HFL-1 or cancer cells (2-8 million cells) were seeded in 10 cm dishes and grown overnight so that the cells were about 40-80% confluent before treatment with the compound. Cells were then treated with different drugs at indicated concentrations (see descriptions for FIG. 11 and FIG. 12) for 30 minutes. Cell lysate preparation, protein quantitation, SDS-PAGE, and Western blotting procedures are described in Example 2 and 4. Primary antibodies used in this Example and later Examples of this application are shown in Table A. Secondary antibodies Anti-mouse IgG HRP conjugate or Anti-rabbit IgG HRP conjugate (dilutions from 1:2000-1:10000) were used. Western blot membranes were scanned using Imagequant LAS4000 (GE).

[5] = system: K-Ras mutant pancreatic, lung, and colon cancer cell lines, leukemia cell lines; assay: Proliferation assays, panel of cancer cell lines (summary statements); assay type: cell-based
Procedure: as §1

[6] = absolute EC50, 96 hours, read-out: Ab EC50
[7] = relative EC50, 96 hours, read-out: Re EC50

## CC(=O)O[C@@]12C[C@@H](C)[C@]3(O)C4C=C(C)C(=O)[C@@]4(O)CC(CO)=C[C@H]3[C@@H]1C2(C)C (stereo partly shown) [Compound K-101A, Prostratin]
H358
  Top inhibition %: 56.4%
H358; Homo sapiens, NCI-H358, absolute EC50, 96 hours, read-out: Ab EC50
  EC50: 4900 nM
H358; Homo sapiens, NCI-H358, relative EC50, 96 hours, read-out: Re EC50
  EC50: 160 nM
[1]; 0.5 uM of K-101A
  LIF protein level: lowered
[1]
  protein levels of the leukemia inhibitory factor (LIF): dose-dependent reduction
CaMKii (Thr286)
  phosphorylation on CaMKii at Thr286: induced phosphorylation
[2]
  tumor promotion: non-tumor-promoting
[3]
  sensitivity of most cell lines from liver and lung (SCLC): resistant
[3]; 161 cell lines
  cell lines showing top inhibition above 30%: Roughly 50 % of the cell lines
  cell lines showing top inhibition above 50%: ~25 % of the cell lines
[3]; breast cancer cell lines
  lines having a top inhibition above 30%: 9 out of 18
[3]; leukemia cell lines
  lines having a top inhibition above 30%: 10 out of 11
phospho-PKC (pan); 0.5 uM of K-101A
  phospho-PKC (pan) level: without affecting
phospho-PKC (pan); 48 hours, K-103, K-102 at 0.5 μM, K-101A at 2.5 μM
  phospho-PKC (pan) levels: reduction
[4]
  phosphorylation of PKCμ at Ser744/748 and Ser916 and PKCδ at Thr505: induced in all cell lines
  proportion of phosphorylated PKCμ at Ser916/total PKCμ: much greater in two sensitive cell lines
Wnt signaling pathway
  maximal inhibition of TOPFlash activity: about 60%
KP-4
  Top inhibition %: 63.3%
KP-4; Homo sapiens, absolute EC50, 96 hours, read-out: Ab EC50
  EC50: 400 nM
KP-4; Homo sapiens, relative EC50, 96 hours, read-out: Re EC50
  EC50: 190 nM

## C/C=C(/C)C(=O)O[C@H]1C(C)=C[C@]23C(=O)[C@@H](C=C(CO)[C@@H](O)[C@]12O)[C@H]1[C@@H](C[C@H]3C)C1(C)C [Compound K-102, Ingenol-3-angelate, reference compound]
CaMKii (Thr286)
  phosphorylation on CaMKii at Thr286: induced phosphorylation
PKCμ
  PKCμ activation, phosphorylation at Ser744/748: observed for all four cancer cell lines
  PKCμ activation, phosphorylation at Ser916: observed primarily in cell lines A549 and Pan 02,13; also recorded: observed primarily in cell lines A549 and Panc02.13
[5]
  potency in proliferation inhibition relative to prostratin: more potent in proliferation inhibition

## CC(=O)OCC1=C[C@H]2[C@@H]3C(C)(C)[C@]3(OC(C)=O)C[C@@H](C)[C@]2(O)C2C=C(C)C(=O)[C@@]2(O)C1 (stereo partly shown) [Compound K-101E]
H358
  Top inhibition %: 47.9%
H358; [6]
  EC50: > 30000 nM
H358; [7]
  EC50: 1250 nM
[1]
  protein levels of the leukemia inhibitory factor (LIF): did not affect
KP-4
  Top inhibition %: 69.1%
KP-4; [6]
  EC50: 1280 nM
KP-4; [7]
  EC50: 680 nM
